In ChEMBL document CHEMBL1201862, “PubChem BioAssay data set” (2004):
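Tested at 5 concentrations; 48 h exposure; 96-well plates; endpoints linearly interpolated, else capped at highest concentration. GI50 is the concentration that inhibits growth by half.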 Active and inactive are the calls of the source. Cut-off read from the data, not from the text of the source: active = GI50 up to about 1.1 µM and inactive = higher.

How the values were obtained:
Test in all cases: NCI anticancer screen, dose series, 48 h
[1] = tested on: 786-0
[2] = tested on: A498
[3] = tested on: A549
[4] = tested on: ACHN
[5] = tested on: BT-549
[6] = tested on: CAKI-1
[7] = tested on: CCRF-CEM
[8] = tested on: COLO 205
[9] = tested on: DU-145
[10] = tested on: EKVX
[11] = tested on: HCC 2998
[12] = tested on: HCT-116
[13] = tested on: HCT-15
[14] = tested on: HL-60
[15] = tested on: HOP-62
[16] = tested on: HOP-92
[17] = tested on: HT-29
[18] = tested on: Hs-578T
[19] = tested on: IGROV-1
[20] = tested on: K562
[21] = tested on: KM12
[22] = tested on: LOX IMVI
[23] = tested on: M14
[24] = tested on: MCF7
[25] = tested on: MDA-MB-231
[26] = tested on: MDA-MB-435
[27] = tested on: MDA-N
[28] = tested on: MOLT-4
[29] = tested on: Malme-3M
[30] = tested on: NCI-H226
[31] = tested on: NCI-H23
[32] = tested on: NCI-H460
[33] = tested on: NCI-H522
[34] = tested on: NCI/ADR-RES
[35] = tested on: OVCAR-3
[36] = tested on: OVCAR-4
[37] = tested on: OVCAR-5
[38] = tested on: OVCAR-8
[39] = tested on: PC-3
[40] = tested on: RPMI-8226
[41] = tested on: RXF 393
[42] = tested on: SF-268
[43] = tested on: SF-295
[44] = tested on: SF-539
[45] = tested on: SK-MEL-28
[46] = tested on: SK-MEL-2
[47] = tested on: SK-MEL-5
[48] = tested on: SK-OV-3
[49] = tested on: SN12C
[50] = tested on: SNB-19
[51] = tested on: SNB-75
[52] = tested on: SR
[53] = tested on: SW-620
[54] = tested on: T47D
[55] = tested on: TK-10
[56] = tested on: U-251
[57] = tested on: UACC-257
[58] = tested on: UACC-62
[59] = tested on: UO-31

For `CCOc1cc2c(cc1O)/C(=N\N)C[C@@H]1[C@@H]2CC[C@]2(C)[C@@H](O)CC[C@@H]12`, the GI50 [1] was 4.48 µM (inactive), the GI50 [2] was 12.4 µM (inactive) and the GI50 [3] was 8.75 µM (inactive). For the same compound, the GI50 [4] was 5.61 µM (inactive), the GI50 [5] was 4.26 µM (inactive) and the GI50 [6] was 5.43 µM (inactive). The GI50 [7] was 2.38 µM (inactive), the GI50 [8] was 27.4 µM (inactive) and the GI50 [9] was 8.73 µM (inactive). The GI50 [10] was 8.28 µM (inactive), the GI50 [11] was 2.07 µM (inactive) and the GI50 [12] was 2.34 µM (inactive). For the same compound, the GI50 [13] was 1.31 µM, the GI50 [14] was 0.337 µM (active) and the GI50 [15] was 3.66 µM (inactive). For the same compound, the GI50 [16] was 13.2 µM (inactive), the GI50 [17] was 9.53 µM (inactive) and the GI50 [18] was 3.06 µM (inactive). The GI50 [19] was 6.97 µM (inactive), the GI50 [20] was 0.42 µM (active) and the GI50 [21] was 4.71 µM (inactive). The GI50 [22] was 4.12 µM (inactive), the GI50 [23] was 4.8 µM (inactive) and the GI50 [24] was 2.68 µM (inactive). For the same compound, the GI50 [25] was 5.62 µM (inactive), the GI50 [26] was 0.281 µM (active) and the GI50 [27] was 0.261 µM (active). For the same compound, the GI50 [28] was 4.27 µM (inactive), the GI50 [29] was 1.54 µM (inactive) and the GI50 [30] was 4.76 µM (inactive). The GI50 [31] was 7.01 µM (inactive), the GI50 [32] was 2.99 µM (inactive) and the GI50 [33] was 2.8 µM (inactive). The GI50 [34] was 3.86 µM (inactive), the GI50 [35] was 2.32 µM (inactive) and the GI50 [36] was 24.7 µM (inactive). For the same compound, the GI50 [37] was 36.4 µM (inactive), the GI50 [38] was 7.1 µM (inactive) and the GI50 [39] was 6.34 µM (inactive). For the same compound, the GI50 [40] was 4.48 µM (inactive), the GI50 [41] was 5.75 µM (inactive) and the GI50 [42] was 5.3 µM (inactive). For the same compound, the GI50 [43] was 0.397 µM (active), the GI50 [44] was 3.13 µM (inactive) and the GI50 [45] was 5.66 µM (inactive). The GI50 [46] was 4.38 µM (inactive), the GI50 [47] was 1.28 µM (inactive) and the GI50 [48] was 5.18 µM (inactive). For the same compound, the GI50 [49] was 9.12 µM (inactive), the GI50 [50] was 3.87 µM (inactive) and the GI50 [51] was 3.1 µM (inactive). The GI50 [52] was 0.333 µM (active), the GI50 [53] was 1.85 µM (inactive) and the GI50 [54] was 8.32 µM (inactive). The GI50 [55] was 22.2 µM (inactive), the GI50 [56] was 3.78 µM (inactive) and the GI50 [57] was 7.43 µM (inactive). The GI50 [58] was 0.879 µM (active) and the GI50 [59] was 3.96 µM (inactive).
With `COc1ccc2c3c(ccc2c1)NC(C(=O)O)CC3` (configuration not stated) the GI50 [1] was 97.7 µM (inactive), the GI50 [2] was 27.7 µM (inactive) and the GI50 [3] was 62.1 µM (inactive). The GI50 [4] was 73.8 µM (inactive), the GI50 [5] was > 100 µM (inactive) and the GI50 [6] was 88.3 µM (inactive). For the same compound, the GI50 [8] was 39.5 µM (inactive), the GI50 [9] was > 100 µM (inactive) and the GI50 [10] was 67.8 µM (inactive). For the same compound, the GI50 [11] was 44.3 µM (inactive), the GI50 [12] was 80.2 µM (inactive) and the GI50 [13] was 51.8 µM. The GI50 [14] was 26.1 µM (inactive), the GI50 [15] was 80.5 µM (inactive) and the GI50 [16] was 79.4 µM (inactive). For the same compound, the GI50 [17] was 45.2 µM (inactive), the GI50 [18] was 50.4 µM (inactive) and the GI50 [19] was 40.8 µM (inactive). The GI50 [20] was 35.2 µM (inactive), the GI50 [21] was 67.3 µM (inactive) and the GI50 [22] was 46.5 µM (inactive). For the same compound, the GI50 [23] was 45.1 µM (inactive), the GI50 [24] was 36.4 µM (inactive) and the GI50 [25] was 85.7 µM (inactive). For the same compound, the GI50 [26] was 60.4 µM (inactive), the GI50 [27] was 57.8 µM (inactive) and the GI50 [28] was 19.5 µM (inactive). For the same compound, the GI50 [29] was > 100 µM (inactive), the GI50 [30] was > 100 µM (inactive) and the GI50 [31] was > 100 µM (inactive). For the same compound, the GI50 [32] was 49.8 µM (inactive), the GI50 [33] was 29.2 µM (inactive) and the GI50 [34] was 46.3 µM (inactive). For the same compound, the GI50 [35] was 35.6 µM (inactive), the GI50 [36] was 65.3 µM (inactive) and the GI50 [37] was > 100 µM (inactive). The GI50 [38] was 64.4 µM (inactive), the GI50 [39] was 74.6 µM (inactive) and the GI50 [40] was 17.1 µM (inactive). The GI50 [41] was > 100 µM (inactive), the GI50 [42] was 39.1 µM (inactive) and the GI50 [43] was 58.5 µM (inactive). The GI50 [44] was 80.4 µM (inactive), the GI50 [45] was 67.8 µM (inactive) and the GI50 [46] was > 100 µM (inactive). The GI50 [47] was 27.4 µM (inactive), the GI50 [48] was > 100 µM (inactive) and the GI50 [49] was 63.1 µM (inactive). The GI50 [50] was 56.8 µM (inactive), the GI50 [51] was 57.7 µM (inactive) and the GI50 [52] was 18.5 µM (inactive). The GI50 [53] was 35.2 µM (inactive), the GI50 [54] was 26.9 µM (inactive) and the GI50 [55] was 52.1 µM (inactive). For the same compound, the GI50 [56] was 38.2 µM (inactive), the GI50 [57] was > 100 µM (inactive) and the GI50 [58] was 40.5 µM (inactive). For the same compound, the GI50 [59] was 47 µM (inactive).
